Laboratory results taken from patent US20250304563A1, “ACTIVATORS OF EFFECTOR T CELLS” (Orum Therapeutics, Inc., priority 2022, published 2025).

Tests used:
[1] = molecular target: Cbl-b (36-427 aa truncated form, N-terminus Avi-tag) (Homo sapiens (Human), UniProt Q13191); test: Cbl-b binding: TR-FRET displacement of BODIPY-FL probe
Procedure, shortened: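 IC50 from loss of terbium–BODIPY-FL TR-FRET signal as compounds compete off a fluorescent Cbl-b inhibitor probe (1 uM) for 1 h at RT. Protein: N-Avi-tagged human Cbl-b 36-427 on streptavidin-terbium, 20 mM HEPES pH 7.5 buffer.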

Human primary T cells [2] = test: T cell activation: secreted IL-2; assay type: cell-based; conditions: 48 hours, fold over background normalized to Compound 141A; for IL-2 1 nM: 1 nM compound; for IL-2 10 nM: 10 nM compound; for IL-2 100 nM: 100 nM compound
Procedure, shortened: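 IL-2 values are fold over anti-CD3/CD28 background, normalized to a reference compound and sorted into ranges. They come from supernatants of human pan-T cells captured on anti-CD3-coated plates and exposed 48 h, 37° C., to duplicate compound dilutions, measured with cytometric beads.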

Human primary T cells [3] = test: T cell activation: secreted IFN-y; assay type: cell-based; conditions: 48 hours, fold over background normalized to Compound 141A; for IFN-y 1 nM: 1 nM compound; for IFN-y 10 nM: 10 nM compound; for IFN-y 100 nM: 100 nM compound
Procedure, shortened: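 Values are binned ranges (A–D) of fold increase over anti-CD3/CD28 background, normalized to a reference compound, for IFN-γ in supernatants measured by bead array. Pan-T cells from donor PBMC or LeukoPaks were stimulated on anti-CD3-coated wells (10 μg/mL coating) in serum-free medium with compound for 48 h at 37 °C.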

Human primary T cells [4] = test: T cell activation: CD69 surface expression by flow cytometry; assay type: cell-based; conditions: fold over anti-CD3 stimulated background normalized to Compound 141A; for CD69 1 nM: 1 nM compound; for CD69 10 nM: 10 nM compound; for CD69 100 nM: 100 nM compound
Procedure, shortened: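 Read-out is flow-cytometric CD69 surface staining, expressed as fold increase over anti-CD3-stimulated background and normalized to Compound 141A. Human pan T cells from PBMC or LeukoPaks were plated on OKT3-coated wells in serum-free XVivo-15. Compound dilutions were added for 48 h at 37° C, 5% CO2.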

[5] = system: human peripheral blood pan-T cells; test: T cell activation by small molecule inhibitors of Cbl-b (biomarker flow cytometry); assay type: cell-based; conditions: 10 μM, 48 hours
Protocol: Cryopreserved human peripheral blood pan-T cells (StemCell, 70024) were defrosted and resuspended in Immunocult-XF T cell Expansion Medium (StemCell, 10981). Cells were plated at 8×10^5 cells per well in 24 well plates, in presence or absence of pre-coated anti-CD3 (OKT3) antibody (ThermoFisher, 16-0037-85). Pre-coating of plates was done by diluting anti-CD3 antibody to 10 μg/mL in PBS and adding 1 ml to each well. Plates were incubated at 4° C. overnight or at 37° C. for 2 hours and washed once with PBS before use. Dilution of each small molecule cbl-b inhibitor was added. Untreated cell was used as a control. Plates were incubated for 48 hours at 37° C. with 5% CO2. T cells were fixed and permeabilized with Intracellular Fixation & Permeabilization Buffer Set (ThermoFisher, 88-8824), and continuously stained with one of PE-conjugated antibody listed in Table 10. Stained T cells were then analyzed with by flow cytometry (ThermoFisher Attune NxT). The percent of positive cells of each treated group was normalized with untreated cell and sorted into bins as follows: fold over background values from 10 to 14.9: range “A;” values from 5.0 to 9.9: range “B;” values from 2.0 to 4.9: range “C;” and values from 0.1 to 1.9: range “D.” Only for Notch1, geometric mean was used.

[6] = +CD3 (pre-coated anti-CD3 OKT3)

Chain of Cbl-b (36-427 aa truncated form, N-terminus Avi-tag) (Q13191 36-427): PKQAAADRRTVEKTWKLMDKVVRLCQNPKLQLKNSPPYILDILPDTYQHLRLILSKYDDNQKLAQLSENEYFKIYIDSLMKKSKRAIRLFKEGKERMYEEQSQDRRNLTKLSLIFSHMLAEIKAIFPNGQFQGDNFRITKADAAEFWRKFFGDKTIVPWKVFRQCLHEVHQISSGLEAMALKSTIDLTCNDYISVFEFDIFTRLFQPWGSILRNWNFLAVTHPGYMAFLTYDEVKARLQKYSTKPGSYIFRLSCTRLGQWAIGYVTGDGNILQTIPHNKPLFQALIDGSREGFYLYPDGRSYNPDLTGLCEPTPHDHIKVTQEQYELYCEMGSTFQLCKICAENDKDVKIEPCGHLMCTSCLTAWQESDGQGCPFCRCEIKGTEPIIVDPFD

In the case of C[C@H]1CCCN(Cc2cc3c(c(C(F)(F)F)c2)CN(c2cc(C4(Cc5nncn5C)COC4)cc(NC4CC(C#N)C4)n2)C3=O)C1.O=C(O)C(F)(F)F (stereo partly drawn) [Compound 190, (S)-3-((4-(3-((4-methyl-4H-1,2,4-triazol-3-yl)methyl)oxetan-3-yl)-6-(6-((3-methylpiperidin-1-yl)methyl)-1-oxo-4-(trifluoromethyl)isoindolin-2-yl)pyridin-2-yl)amino)cyclobutane-1-carbonitrile; trifluoroacetic acid], the IC50 [1] is reported as 5.01 to 20 nM, the “IL-2 1 nM” value (Human primary T cells [2]) is reported as “C (values between 0.10 and 0.30: range “C”)” and the “IL-2 10 nM” value (Human primary T cells [2]) is reported as “C (values between 0.10 and 0.30: range “C”)”. The “IL-2 100 nM” value (Human primary T cells [2]) was “C (values between 0.10 and 0.30: range “C”)”, the “IFN-y 1 nM” value (Human primary T cells [3]) was “C (values between 0.10 and 0.30: range “C”)” and the “IFN-y 10 nM” value (Human primary T cells [3]) was “B (values between 0.31 and 1.00: range “B;”)”. The “IFN-y 100 nM” value (Human primary T cells [3]) was “B (values between 0.31 and 1.00: range “B;”)”, the “CD69 1 nM” value (Human primary T cells [4]) was “C (values between 0.30 and 0.60: range “C”)” and the “CD69 10 nM” value (Human primary T cells [4]) was “C (values between 0.30 and 0.60: range “C”)”. For the same molecule, the “CD69 100 nM” value (Human primary T cells [4]) was “B (values between 0.61 and 0.80: range “B;”)”.
In the case of CC1CC(c2cc(NCCC#N)nc(N3Cc4c(cc(CN5CCC[C@H](C)C5)cc4C(F)(F)F)C3=O)c2)(c2nncn2C)C1 (stereo partly drawn) [Compound 192, 3-{[6-(6-{[(3S)-3-methylpiperidin-1-yl]methyl}-1-oxo-4-(trifluoromethyl)-3H-isoindol-2-yl)-4-[(1r,3s)-3-methyl-1-(4-methyl-1,2,4-triazol-3-yl)cyclobutyl]pyridin-2-yl]amino}propanenitrile], the “IL-2 1 nM” value (Human primary T cells [2]) is reported as “D (values between 0.01 and 0.09: range “D.”)”, the “IL-2 10 nM” value (Human primary T cells [2]) is reported as “B (values between 0.31 and 0.79: range “B”)” and the “IL-2 100 nM” value (Human primary T cells [2]) is reported as “X (fold over background values between 1.41 and 1.8: range “X”)”. The “IFN-y 1 nM” value (Human primary T cells [3]) was “B (values between 0.31 and 1.00: range “B;”)”, the “IFN-y 10 nM” value (Human primary T cells [3]) was “B (values between 0.31 and 1.00: range “B;”)” and the “CD69 1 nM” value (Human primary T cells [4]) was “C (values between 0.30 and 0.60: range “C”)”. For the same molecule, the “CD69 10 nM” value (Human primary T cells [4]) was “A (values between 0.81 and 1.10: range “A”)”, the “CD69 100 nM” value (Human primary T cells [4]) was “X (fold over background values between 1.11 and 1.6: range “X”)” and the “Notch 1, geometric mean normalized with untreated cell (fold over background)” value [5, 6] was “C (values from 2.0 to 4.9: range “C;”)”. The “pCD3zeta, percent of positive cells normalized with untreated cell (fold over background)” value [5, 6] was “D (values from 0.1 to 1.9: range “D.”)”, the “pHS1, percent of positive cells normalized with untreated cell (fold over background)” value [5, 6] was “C (values from 2.0 to 4.9: range “C;”)” and the “pLYN, percent of positive cells normalized with untreated cell (fold over background)” value [5, 6] was “D (values from 0.1 to 1.9: range “D.”)”. The “pPLCg1, percent of positive cells normalized with untreated cell (fold over background)” value [5, 6] was “C (values from 2.0 to 4.9: range “C;”)”, the “pPLCg2, percent of positive cells normalized with untreated cell (fold over background)” value [5, 6] was “D (values from 0.1 to 1.9: range “D.”)” and the “pZAP70, percent of positive cells normalized with untreated cell (fold over background)” value [5, 6] was “C (values from 2.0 to 4.9: range “C;”)”. For the same molecule, the “Notch 1, geometric mean normalized with untreated cell (fold over background)” value ([5]; −CD3) was “D (values from 0.1 to 1.9: range “D.”)”, the “pCD3zeta, percent of positive cells normalized with untreated cell (fold over background)” value ([5]; −CD3) was “C (values from 2.0 to 4.9: range “C;”)” and the “pHS1, percent of positive cells normalized with untreated cell (fold over background)” value ([5]; −CD3) was “A (fold over background values from 10 to 14.9: range “A;”)”. For the same molecule, the “pLYN, percent of positive cells normalized with untreated cell (fold over background)” value ([5]; −CD3) was “C (values from 2.0 to 4.9: range “C;”)”, the “pPLCg1, percent of positive cells normalized with untreated cell (fold over background)” value ([5]; −CD3) was “B (values from 5.0 to 9.9: range “B;”)” and the “pPLCg2, percent of positive cells normalized with untreated cell (fold over background)” value ([5]; −CD3) was “A (fold over background values from 10 to 14.9: range “A;”)”. The “pZAP70, percent of positive cells normalized with untreated cell (fold over background)” value ([5]; −CD3) was “C (values from 2.0 to 4.9: range “C;”)”.
In the case of Cn1cnnc1CC1(c2cccc(NC(=O)c3cc(CN4CC[C@H](OCCCCCCNC(=O)CCN5C(=O)C=CC5=O)C4)cc(C4CC4)n3)c2)COC1 [Compound 200], the IC50 [1] is reported as 5.01 to 20 nM, the “IL-2 1 nM” value (Human primary T cells [2]) is reported as “C (values between 0.10 and 0.30: range “C”)” and the “IL-2 10 nM” value (Human primary T cells [2]) is reported as “C (values between 0.10 and 0.30: range “C”)”. The “IL-2 100 nM” value (Human primary T cells [2]) was “C (values between 0.10 and 0.30: range “C”)”, the “IFN-y 1 nM” value (Human primary T cells [3]) was “C (values between 0.10 and 0.30: range “C”)” and the “IFN-y 10 nM” value (Human primary T cells [3]) was “C (values between 0.10 and 0.30: range “C”)”. For the same molecule, the “IFN-y 100 nM” value (Human primary T cells [3]) was “C (values between 0.10 and 0.30: range “C”)”, the “CD69 10 nM” value (Human primary T cells [4]) was “C (values between 0.30 and 0.60: range “C”)” and the “CD69 100 nM” value (Human primary T cells [4]) was “C (values between 0.30 and 0.60: range “C”)”.
With C[C@H]1CCCN(Cc2cc3c(c(C(F)(F)F)c2)CN(c2cc(C4(Cc5nncn5C)COC4)cc(OCCOCCOCCOCCNC(=O)CCN4C(=O)C=CC4=O)n2)C3=O)C1 [Compound 201, 3-(2,5-dioxopyrrol-1-yl)-N-{2-[2-(2-{2-[(4-{3-[(4-methyl-1,2,4-triazol-3-yl)methyl]oxetan-3-yl}-6-(6-{[(3S)-3-methylpiperidin-1-yl]methyl}-1-oxo-4-(trifluoromethyl)-3H-isoindol-2-yl)pyridin-2-yl)oxy]ethoxy}ethoxy)ethoxy]ethyl}propanamide] the IC50 [1] was 1 to 5 nM, the “IL-2 1 nM” value (Human primary T cells [2]) was “C (values between 0.10 and 0.30: range “C”)” and the “IL-2 10 nM” value (Human primary T cells [2]) was “C (values between 0.10 and 0.30: range “C”)”. The “IL-2 100 nM” value (Human primary T cells [2]) was “C (values between 0.10 and 0.30: range “C”)”, the “IFN-y 1 nM” value (Human primary T cells [3]) was “C (values between 0.10 and 0.30: range “C”)” and the “IFN-y 10 nM” value (Human primary T cells [3]) was “C (values between 0.10 and 0.30: range “C”)”. For the same molecule, the “IFN-y 100 nM” value (Human primary T cells [3]) was “C (values between 0.10 and 0.30: range “C”)”, the “CD69 10 nM” value (Human primary T cells [4]) was “C (values between 0.30 and 0.60: range “C”)” and the “CD69 100 nM” value (Human primary T cells [4]) was “C (values between 0.30 and 0.60: range “C”)”.
